Reference: patent US20260306526A1, “COMBINATION THERAPY FOR BACTERIAL INFECTIONS COMPRISING ZINC-CHELATOR, BETA-LACTAM ANTIBIOTIC AND SERINE BETA-LACTAMASE INHIBITOR” (priority 2023, published 2026)
“And” between values parts separate entries of the source, which are not always exact repeats. Equal entries are not always repeated.

Key:
Assay type in all cases: cell-based
[1] = test system: Acinetobacter baumannii ST25; assay: MIC determination, fixed concentration of sBLI (Example 10); settings: with AMP and SUL 16 μg/mL, NDM-1, OXA-58, OXA-64, OXA-10, VEB-21, ADC-26, caMHB, 29.4 μM Zn2+
Procedure: (§1) Antimicrobial susceptibility testing (AST) by broth microdilution (MIC determination) was performed according to The European Committee on Antimicrobial Susceptibility Testing (EUCAST) guidelines (see Reading guide for broth microdilution Version 5.0, 2024: https://www.eucast.org).
(§2) For combinations containing meropenem as the antibiotic, Sensititre™ FINMER meropenem 64-0.03 μg/mL plates (Thermo Fischer Diagnostics custom plates; YFINMER) were used in most of the experiments. For other antibiotics (and for meropenem whenever a higher start concentration than 64 μg/mL was needed) sterile clear round bottom polystyrene (non-treated) 96-well microplates (Corning 3788) were used for making serial two-fold dilutions of the antibiotic in cation-adjusted Mueller Hinton II broth (caMHB; Thermo Scientific, T3462, containing 29.4 μM Zn^2+ or MILLIPORE, 90922-500G, containing 5.6 μM Zn^2+), across the columns of the microtiter plate (128-0.06 μg/mL; columns 1-12).
(§3) The checkerboard plates were all modified by adding a serine β-lactamase inhibitor (sBLI) at a fixed concentration of 16 μg/mL. Additionally, the zinc chelator was added at various fixed concentrations. […]

[2] = test system: Klebsiella pneumoniae K66-45; assay: MIC determination, fixed concentration of sBLI (Examples 8-9); settings: Example 9; with PIP and TAZ 16 μg/mL; NDM-1; caMHB, 29.4 μM Zn2+
Procedure: as §1, §2, §3

[3] = test system: Pseudomonas aeruginosa ST111; assay: MIC determination, fixed concentration of sBLI (Examples 27-30); settings: VIM-2, OXA-395, PDC-3, caMHB, 29.4 μM Zn2+
Procedure: as §1, §2, §3

SMILES: CN(C[C@H](O)[C@@H](O)[C@H](O)[C@H](O)CO)C(=O)c1ccc(CN(Cc2ccccn2)Cc2ccccn2)nc1 [zinc chelator]
- Synergy with the zinc chelator observed at concentration [1]: 16 µg/mL
- Synergy with the zinc chelator observed at concentration [2]: 16 µg/mL
- Synergy with the zinc chelator observed at concentration ([3]; Example 27, with PIP and AVI 16 μg/mL): 16 µg/mL
- Synergy with the zinc chelator observed at concentration ([3]; Example 28, with PIP and TAZ 16 μg/mL): 16 µg/mL and 8 µg/mL
